Measurements taken from US20060210554A1, “Detection of cholesterol ozonation products” (priority 2003, published 2006).

Tests used:
[1] = Aldolization of ketoaldehyde 4a with amino acids (1H NMR); format: physicochemical; details: L-Lys(OEt).2HCl, 1 equivalent, 100 h, DMSO-d6/D2O
Protocol: Aldolization of ketoaldehyde 4a with amino acids. […] To this solution was added 1 equivalent of either: a) L-proline, b) glycine, c) L-lysine hydrochloride or d) L-lysine ethyl ester dihydrochloride. At time points the samples were analyzed by ^1H NMR.

apoB-100 of human LDL = apoB-100 of human LDL (Homo sapiens, UniProt P04114); assay: Circular dichroism of LDL secondary structure; details: LDL 100 μg/ml, compound 10 μM, PBS pH 7.4, 37° C., up to 48 h; for random coil of LDL protein after incubation: normal LDL 27±2%; for a helical structure of LDL protein after incubation: normal LDL ~40±2%
apoB-100 of human LDL, sequence (P04114 28-4563): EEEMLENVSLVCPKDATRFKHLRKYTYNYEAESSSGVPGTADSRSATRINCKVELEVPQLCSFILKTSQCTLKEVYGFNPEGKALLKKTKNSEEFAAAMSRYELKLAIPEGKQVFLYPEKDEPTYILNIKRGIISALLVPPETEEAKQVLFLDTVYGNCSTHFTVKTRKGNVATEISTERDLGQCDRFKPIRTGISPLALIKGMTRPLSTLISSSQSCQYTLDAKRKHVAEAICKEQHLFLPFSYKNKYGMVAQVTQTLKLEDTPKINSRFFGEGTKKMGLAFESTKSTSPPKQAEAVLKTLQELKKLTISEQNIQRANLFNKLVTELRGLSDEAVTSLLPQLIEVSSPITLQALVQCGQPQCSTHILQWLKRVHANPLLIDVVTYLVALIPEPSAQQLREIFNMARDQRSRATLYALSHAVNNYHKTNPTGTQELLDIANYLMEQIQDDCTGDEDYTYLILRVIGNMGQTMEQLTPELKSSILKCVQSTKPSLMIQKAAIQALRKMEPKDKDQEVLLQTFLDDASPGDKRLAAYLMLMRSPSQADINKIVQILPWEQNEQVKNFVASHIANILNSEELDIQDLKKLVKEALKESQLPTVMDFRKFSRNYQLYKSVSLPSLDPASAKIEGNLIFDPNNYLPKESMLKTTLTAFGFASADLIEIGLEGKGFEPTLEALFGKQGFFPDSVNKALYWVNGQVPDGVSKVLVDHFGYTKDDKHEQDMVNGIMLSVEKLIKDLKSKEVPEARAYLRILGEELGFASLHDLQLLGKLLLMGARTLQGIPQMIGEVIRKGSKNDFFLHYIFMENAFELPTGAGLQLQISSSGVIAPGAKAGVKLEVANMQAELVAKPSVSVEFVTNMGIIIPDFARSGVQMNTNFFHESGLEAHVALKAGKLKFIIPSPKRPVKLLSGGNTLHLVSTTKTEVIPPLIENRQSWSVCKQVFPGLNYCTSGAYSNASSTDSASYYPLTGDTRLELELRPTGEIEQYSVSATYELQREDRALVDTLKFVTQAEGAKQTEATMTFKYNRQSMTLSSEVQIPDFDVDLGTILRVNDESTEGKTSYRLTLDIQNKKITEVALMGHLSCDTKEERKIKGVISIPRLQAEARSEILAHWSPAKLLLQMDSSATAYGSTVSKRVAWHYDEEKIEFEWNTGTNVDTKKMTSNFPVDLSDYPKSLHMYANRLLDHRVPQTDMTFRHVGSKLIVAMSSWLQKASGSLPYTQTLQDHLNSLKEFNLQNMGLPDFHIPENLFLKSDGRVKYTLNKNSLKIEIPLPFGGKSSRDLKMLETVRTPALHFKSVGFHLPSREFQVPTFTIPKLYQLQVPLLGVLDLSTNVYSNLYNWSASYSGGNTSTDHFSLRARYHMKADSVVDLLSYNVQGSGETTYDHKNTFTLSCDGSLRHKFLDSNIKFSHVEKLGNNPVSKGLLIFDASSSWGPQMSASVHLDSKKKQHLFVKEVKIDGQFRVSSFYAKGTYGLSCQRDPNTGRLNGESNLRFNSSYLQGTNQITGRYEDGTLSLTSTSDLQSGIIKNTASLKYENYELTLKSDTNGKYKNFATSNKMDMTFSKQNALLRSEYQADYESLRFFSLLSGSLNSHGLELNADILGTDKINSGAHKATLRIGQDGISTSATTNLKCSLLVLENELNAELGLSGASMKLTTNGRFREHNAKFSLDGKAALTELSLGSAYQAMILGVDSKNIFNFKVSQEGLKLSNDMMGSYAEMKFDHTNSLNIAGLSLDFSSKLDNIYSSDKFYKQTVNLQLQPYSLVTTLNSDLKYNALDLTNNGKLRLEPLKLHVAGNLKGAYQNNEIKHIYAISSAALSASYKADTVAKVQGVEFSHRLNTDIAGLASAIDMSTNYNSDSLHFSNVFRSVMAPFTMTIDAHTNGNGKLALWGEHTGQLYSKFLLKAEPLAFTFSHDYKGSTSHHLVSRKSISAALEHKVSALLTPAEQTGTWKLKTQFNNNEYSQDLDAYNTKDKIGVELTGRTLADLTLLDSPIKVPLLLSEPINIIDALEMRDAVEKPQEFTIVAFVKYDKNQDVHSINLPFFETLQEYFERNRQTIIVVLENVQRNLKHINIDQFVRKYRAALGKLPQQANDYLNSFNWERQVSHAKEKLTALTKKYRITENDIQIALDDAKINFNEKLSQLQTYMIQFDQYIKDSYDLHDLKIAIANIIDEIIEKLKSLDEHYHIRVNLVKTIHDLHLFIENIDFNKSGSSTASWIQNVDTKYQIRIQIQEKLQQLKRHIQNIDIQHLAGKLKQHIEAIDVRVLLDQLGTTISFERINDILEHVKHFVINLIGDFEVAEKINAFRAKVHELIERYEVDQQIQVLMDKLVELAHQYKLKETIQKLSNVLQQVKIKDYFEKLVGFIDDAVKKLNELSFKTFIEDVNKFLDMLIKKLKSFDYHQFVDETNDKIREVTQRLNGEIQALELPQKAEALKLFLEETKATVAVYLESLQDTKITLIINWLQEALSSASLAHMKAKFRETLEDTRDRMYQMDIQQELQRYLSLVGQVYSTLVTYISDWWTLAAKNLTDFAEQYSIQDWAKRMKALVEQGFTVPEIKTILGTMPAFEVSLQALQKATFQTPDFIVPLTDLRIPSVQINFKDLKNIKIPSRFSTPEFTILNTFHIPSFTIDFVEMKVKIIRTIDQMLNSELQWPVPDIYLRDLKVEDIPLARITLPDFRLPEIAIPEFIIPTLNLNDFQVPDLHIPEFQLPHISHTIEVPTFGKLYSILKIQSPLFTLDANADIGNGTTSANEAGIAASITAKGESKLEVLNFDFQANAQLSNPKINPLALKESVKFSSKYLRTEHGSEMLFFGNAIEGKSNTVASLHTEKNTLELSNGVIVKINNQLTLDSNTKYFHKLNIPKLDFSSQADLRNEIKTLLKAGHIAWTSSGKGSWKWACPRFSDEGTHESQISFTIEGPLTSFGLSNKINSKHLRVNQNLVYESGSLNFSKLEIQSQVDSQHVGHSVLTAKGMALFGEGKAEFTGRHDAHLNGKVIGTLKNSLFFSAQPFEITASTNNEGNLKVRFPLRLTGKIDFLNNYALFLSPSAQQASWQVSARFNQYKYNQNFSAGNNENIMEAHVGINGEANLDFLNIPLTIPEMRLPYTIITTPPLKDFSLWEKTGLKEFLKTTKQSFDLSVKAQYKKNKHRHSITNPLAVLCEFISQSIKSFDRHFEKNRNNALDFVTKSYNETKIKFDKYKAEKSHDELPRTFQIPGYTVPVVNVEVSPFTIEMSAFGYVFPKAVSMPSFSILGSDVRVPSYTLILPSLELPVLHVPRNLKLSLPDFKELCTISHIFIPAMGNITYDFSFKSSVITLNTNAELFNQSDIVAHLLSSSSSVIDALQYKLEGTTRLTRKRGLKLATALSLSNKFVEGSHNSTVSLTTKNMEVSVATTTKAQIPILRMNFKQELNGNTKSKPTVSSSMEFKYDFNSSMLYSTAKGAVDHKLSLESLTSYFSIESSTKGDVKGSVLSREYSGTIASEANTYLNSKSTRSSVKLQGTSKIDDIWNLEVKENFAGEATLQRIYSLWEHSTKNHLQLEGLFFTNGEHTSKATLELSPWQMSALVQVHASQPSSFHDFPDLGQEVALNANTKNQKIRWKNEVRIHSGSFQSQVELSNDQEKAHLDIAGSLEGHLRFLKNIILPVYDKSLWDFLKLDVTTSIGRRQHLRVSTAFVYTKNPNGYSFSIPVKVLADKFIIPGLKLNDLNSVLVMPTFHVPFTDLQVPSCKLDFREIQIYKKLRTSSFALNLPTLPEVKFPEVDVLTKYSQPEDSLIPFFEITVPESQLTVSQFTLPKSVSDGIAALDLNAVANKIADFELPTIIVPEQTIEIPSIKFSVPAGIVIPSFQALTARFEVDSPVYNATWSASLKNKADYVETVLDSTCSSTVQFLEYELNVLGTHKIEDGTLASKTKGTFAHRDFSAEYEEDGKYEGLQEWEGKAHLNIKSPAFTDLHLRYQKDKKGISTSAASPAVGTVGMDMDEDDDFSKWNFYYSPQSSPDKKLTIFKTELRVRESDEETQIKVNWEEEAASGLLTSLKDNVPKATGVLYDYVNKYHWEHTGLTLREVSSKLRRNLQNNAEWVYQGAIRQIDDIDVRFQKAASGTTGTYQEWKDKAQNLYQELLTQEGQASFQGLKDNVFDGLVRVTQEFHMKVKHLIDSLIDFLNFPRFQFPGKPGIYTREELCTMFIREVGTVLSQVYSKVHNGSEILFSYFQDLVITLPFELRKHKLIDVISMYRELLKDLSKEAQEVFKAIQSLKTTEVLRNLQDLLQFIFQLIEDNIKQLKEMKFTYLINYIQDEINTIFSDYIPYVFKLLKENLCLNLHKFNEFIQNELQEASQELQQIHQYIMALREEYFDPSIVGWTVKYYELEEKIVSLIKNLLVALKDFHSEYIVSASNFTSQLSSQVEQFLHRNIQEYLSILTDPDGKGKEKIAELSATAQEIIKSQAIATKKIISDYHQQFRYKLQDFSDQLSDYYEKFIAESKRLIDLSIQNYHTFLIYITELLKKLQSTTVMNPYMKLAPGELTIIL
Protocol: Circular dichroism. […] Spectra were recorded in the peptidic range (200-260 nm). To increase the signal-to-noise ratio, multiple spectra (three) were averaged for each measurement.

conversion of 4a into 5a [1] | Structure (SMILES) | random coil of LDL protein after incubation (apoB-100 of human LDL) | a helical structure of LDL protein after incubation (apoB-100 of human LDL)
62 % conversion | CC(C)CCC[C@@H](C)[C@H]1CCC2C(CC=O)C([C@@]3(C)CC[C@H](O)CC3=O)CC[C@@]21C (some centres unmarked) [4a, 3βHydroxy-5-oxo-5,6-secocholestan-6-al] | ~39±2% | ~23±5%
– | CC(C)CCC[C@@H](C)[C@H]1CCC2C3C(CC[C@@]21C)[C@@]1(C)CC[C@H](O)C[C@@]1(O)[C@@H]3C=O (stereo partly drawn) [5a, 3β-Hydroxy-5β-hydroxy-B-norcholestane-6β-carboxaldehyde] | 32±4% | ~20±2%
